Experimental data as given in patent publication US12473296B2, “Perk inhibiting compounds” (HiberCell, Inc., priority 2019, dated 2025).
One block for each compound: values may come before it.

Columns and labels:
[1] = biological target: EIF2AK3 (PERK) catalytic domain (amino acids 536-1116) (Homo sapiens (Human), UniProt Q9NZJ5); test: PERK in vitro activity assay (isolated), TR-FRET kinase assay; settings: isolated PERK enzyme, 1.5 μM ATP, GFP-eIF2a substrate; read-out: Biochemical IC50
Method in brief: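 Human PERK catalytic domain (aa 536-1116) with 100-200 nM GFP-eIF2a in 50 mM HEPES pH 7.5, 10 mM MgCl2, 1.0 mM EGTA, 0.01% Brij-35; enzyme-started reaction run 45 min at room temperature. Stopped with 10 mM EDTA, 2 nM Tb-anti-phospho-eIF2a added for 90 min; IC50 from TR-FRET ratio by 4-parameter logistic fit.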

[2] = biological target: PERK (Homo sapiens (Human), UniProt Q9NZJ5); test: PERK cellular assay (TR-FRET, HEK293-EGFP-eIF2α cells, tunicamycin-induced ER stress); format: cell-based; settings: tunicamycin 2 hours, read-out: Cellular IC50 (μM) (EIF2a)
Method in brief: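 Cells pre-incubated with inhibitor 30 min at 37 °C, then ER stress induced with […] tunicamycin for 2 h. TR-FRET read on lysates; ratio normalized to DMSO control as percent inhibition over a 10-point, 3-fold dilution series; IC50 from 4-parameter logistic fit.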

Sequence of EIF2AK3 (PERK) catalytic domain (amino acids 536-1116) (Q9NZJ5 536-1116): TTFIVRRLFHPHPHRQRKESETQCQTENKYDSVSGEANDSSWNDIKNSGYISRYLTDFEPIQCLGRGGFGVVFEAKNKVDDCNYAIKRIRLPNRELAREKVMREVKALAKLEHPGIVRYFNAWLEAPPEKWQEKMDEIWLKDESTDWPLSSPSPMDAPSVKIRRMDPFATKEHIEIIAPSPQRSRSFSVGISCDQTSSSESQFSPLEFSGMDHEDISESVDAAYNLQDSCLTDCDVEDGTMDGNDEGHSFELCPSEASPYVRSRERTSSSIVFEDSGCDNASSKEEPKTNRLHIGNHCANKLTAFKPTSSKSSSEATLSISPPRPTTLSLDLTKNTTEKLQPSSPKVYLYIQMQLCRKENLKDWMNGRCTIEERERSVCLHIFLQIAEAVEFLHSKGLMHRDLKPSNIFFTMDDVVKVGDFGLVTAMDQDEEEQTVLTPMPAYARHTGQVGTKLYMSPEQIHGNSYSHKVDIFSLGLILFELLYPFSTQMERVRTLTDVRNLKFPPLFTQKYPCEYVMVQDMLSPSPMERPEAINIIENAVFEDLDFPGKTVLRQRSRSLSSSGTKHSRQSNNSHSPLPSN
Sequence of PERK (Q9NZJ5 30-1116): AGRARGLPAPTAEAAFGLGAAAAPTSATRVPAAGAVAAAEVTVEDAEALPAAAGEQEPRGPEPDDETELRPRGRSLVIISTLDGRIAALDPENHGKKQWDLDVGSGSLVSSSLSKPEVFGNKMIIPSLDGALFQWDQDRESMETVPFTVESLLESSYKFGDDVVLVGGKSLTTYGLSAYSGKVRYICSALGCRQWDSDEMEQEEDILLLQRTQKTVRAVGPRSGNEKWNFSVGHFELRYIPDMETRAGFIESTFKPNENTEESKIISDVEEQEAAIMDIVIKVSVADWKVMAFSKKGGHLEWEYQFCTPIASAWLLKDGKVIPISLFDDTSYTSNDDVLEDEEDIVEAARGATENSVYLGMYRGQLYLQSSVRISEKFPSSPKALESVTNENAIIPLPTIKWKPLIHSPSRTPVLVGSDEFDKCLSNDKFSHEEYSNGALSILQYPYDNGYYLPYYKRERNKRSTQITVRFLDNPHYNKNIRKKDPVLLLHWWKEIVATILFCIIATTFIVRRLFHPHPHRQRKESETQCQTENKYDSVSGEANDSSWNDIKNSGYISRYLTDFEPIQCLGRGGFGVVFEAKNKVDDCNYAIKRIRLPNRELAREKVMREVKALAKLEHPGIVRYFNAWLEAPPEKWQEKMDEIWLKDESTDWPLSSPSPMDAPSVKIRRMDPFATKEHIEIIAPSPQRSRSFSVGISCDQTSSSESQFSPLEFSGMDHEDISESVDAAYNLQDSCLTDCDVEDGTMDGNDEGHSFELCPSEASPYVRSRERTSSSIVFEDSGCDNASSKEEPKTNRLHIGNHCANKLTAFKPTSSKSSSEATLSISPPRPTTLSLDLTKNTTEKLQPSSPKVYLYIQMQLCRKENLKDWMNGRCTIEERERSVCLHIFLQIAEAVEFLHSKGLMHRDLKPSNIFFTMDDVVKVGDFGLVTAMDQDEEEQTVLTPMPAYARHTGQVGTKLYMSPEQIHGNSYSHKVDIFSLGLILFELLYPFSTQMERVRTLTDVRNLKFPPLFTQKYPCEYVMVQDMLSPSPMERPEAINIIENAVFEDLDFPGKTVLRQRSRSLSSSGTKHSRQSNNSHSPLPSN

SMILES: CCc1cc(NC(=O)C(O)c2cccc(C(F)(F)F)c2)ccc1-c1cnc(N)c(C(=O)NC(C)C)c1 (stereo not shown) [Example 110, 2-amino-5-(2-ethyl-4-(2-hydroxy-2-(3-(trifluoromethyl)phenyl)acetamido)phenyl)-N-isopropylnicotinamide]
IC50 [1]: 0.001 to 0.025 µM | IC50 [2]: 0.001 to 0.025 µM

SMILES: CCc1cc(NC(=O)C(O)c2cccc(C(F)(F)F)c2)ccc1-c1cnc(N)c(C(=O)NC(C)C)c1 (stereo not shown) [Example 111, 2-amino-5-(2-ethyl-4-(2-hydroxy-2-(3-(trifluoromethyl)phenyl)acetamido)phenyl)-N-isopropylnicotinamide]
IC50 [1]: 0.101 to 0.25 µM | IC50 [2]: 0.101 to 0.25 µM

SMILES: COc1cc(NC(=O)C(O)c2cc(F)cc(F)c2)ccc1-c1cnc(N)c(C(=O)NC(C)C)c1 (stereo not shown) [Example 112, 2-amino-5-(4-(2-(3,5-difluorophenyl)-2-hydroxyacetamido)-2-methoxyphenyl)-N-isopropylnicotinamide]
IC50 [1]: 0.051 to 0.1 µM | IC50 [2]: 0.251 to 0.5 µM

SMILES: CC(C)NC(=O)c1cc(-c2ccc(NC(=O)C(O)c3cc(F)cc(F)c3)cc2OC(F)(F)F)cnc1N (stereo not shown) [Example 113, 2-amino-5-(4-(2-(3,5-difluorophenyl)-2-hydroxyacetamido)-2-(trifluoromethoxy)phenyl)-N-isopropylnicotinamide]
IC50 [1]: 0.051 to 0.1 µM | IC50 [2]: 0.501 to 1 µM

SMILES: Cc1c(-c2cnc(N)c(C(=O)NC(C)C)c2)ccc(NC(=O)C(O)c2cc(F)cc(F)c2)c1F (stereo not shown) [Example 115, 2-amino-5-(4-(2-(3,5-difluorophenyl)-2-hydroxyacetamido)-3-fluoro-2-methylphenyl)-N-isopropylnicotinamide]
IC50 [1]: 0.001 to 0.025 µM | IC50 [2]: 0.001 to 0.025 µM

SMILES: Cc1c(-c2cnc(N)c(C(=O)NC(C)C)c2)ccc(NC(=O)C(O)c2cc(F)cc(F)c2)c1F (stereo not shown) [Example 116, 2-amino-5-(4-(2-(3,5-difluorophenyl)-2-hydroxyacetamido)-3-fluoro-2-methylphenyl)-N-isopropylnicotinamide]
IC50 [1]: 0.251 to 0.5 µM | IC50 [2]: 1 to 2 µM

SMILES: CCNC(=O)c1cc(-c2ccc(NC(=O)C(O)c3cc(F)cc(F)c3)c(F)c2C)cnc1N (stereo not shown) [Example 117, 2-amino-5-(4-(2-(3,5-difluorophenyl)-2-hydroxyacetamido)-3-fluoro-2-methylphenyl)-N-ethylnicotinamide]
IC50 [1]: 0.001 to 0.025 µM | IC50 [2]: 0.001 to 0.025 µM

SMILES: CCNC(=O)c1cc(-c2ccc(NC(=O)C(O)c3cc(F)cc(F)c3)c(F)c2C)cnc1N (stereo not shown) [Example 118, 2-amino-5-(4-(2-(3,5-difluorophenyl)-2-hydroxyacetamido)-3-fluoro-2-methylphenyl)-N-ethylnicotinamide]
IC50 [1]: 0.001 to 0.025 µM | IC50 [2]: 0.026 to 0.05 µM

SMILES: Cc1c(-c2cnc(N)c(C(=O)NC3CC3)c2)ccc(NC(=O)C(O)c2cc(F)cc(F)c2)c1F (stereo not shown) [Example 120, 2-amino-N-cyclopropyl-5-(4-(2-(3,5-difluorophenyl)-2-hydroxyacetamido)-3-fluoro-2-methylphenyl) nicotinamide]
IC50 [1]: 0.001 to 0.025 µM | IC50 [2]: 0.051 to 0.1 µM

SMILES: Cc1c(-c2cnc(N)c(C(=O)NC3COC3)c2)ccc(NC(=O)C(O)c2cc(F)cc(F)c2)c1F (stereo not shown) [Example 121, 2-amino-5-(4-(2-(3,5-difluorophenyl)-2-hydroxyacetamido)-3-fluoro-2-methylphenyl)-N-(oxetan-3-yl)nicotinamide]
IC50 [1]: 0.001 to 0.025 µM | IC50 [2]: 0.001 to 0.025 µM

SMILES: CC(C)NC(=O)c1cc(-c2ccc(NC(=O)C(O)c3cc(F)cc(F)c3)c(F)c2Cl)cnc1N (stereo not shown) [Example 123, 2-amino-5-(2-chloro-4-(2-(3,5-difluorophenyl)-2-hydroxyacetamido)-3-fluorophenyl)-N-isopropylnicotinamide]
IC50 [1]: 0.001 to 0.025 µM | IC50 [2]: 0.001 to 0.025 µM

SMILES: CC(C)NC(=O)c1cc(-c2ccc(NC(=O)C(O)c3cc(F)cc(F)c3)c(F)c2Cl)cnc1N (stereo not shown) [Example 124, 2-amino-5-(2-chloro-4-(2-(3,5-diflouorophenyl)-2-hydroxyacetamido)-3-fluorophenyl)-N-isopropylnicotinamide]
IC50 [1]: 0.026 to 0.05 µM | IC50 [2]: 0.051 to 0.1 µM

SMILES: Cc1cc(NC(=O)C(O)c2cc(F)cc(F)c2)c(F)cc1-c1cnc(N)c(C(=O)NC(C)C)c1 (stereo not shown) [Example 126, 2-amino-5-(4-(2-(3,5-difluorophenyl)-2-hydroxyacetamido)-5-fluoro-2-methylphenyl)-N-isopropylnicotinamide]
IC50 [1]: 0.001 to 0.025 µM | IC50 [2]: 0.101 to 0.25 µM

SMILES: CCc1cc(NC(=O)C(O)c2cc(F)cc(F)c2)ccc1-c1cnc(N)c(C(=O)NC(C)C)n1 (stereo not shown) [Example 152, 3-amino-6-(4-(2-(3,5-difluorophenyl)-2-hydroxyacetamido)-2-ethylphenyl)-N-isopropylpyrazine-2-carboxamide]
IC50 [1]: 0.101 to 0.25 µM | IC50 [2]: 0.101 to 0.25 µM

Second part, the compound after the results:

IC50 [1]: 0.251 to 0.5 µM | IC50 [2]: > 5 µM
SMILES: CC(C)NC(=O)c1cc(-c2ccc(NC(=O)C(O)c3cc(F)cc(F)c3)cc2OC(F)(F)F)cnc1N (stereo not shown) [Example 114, 2-amino-5-(4-(2-(3,5-difluorophenyl)-2-hydroxyacetamido)-2-(trifluoromethoxy)phenyl)-N-isopropylnicotinamide]

IC50 [1]: 0.001 to 0.025 µM | IC50 [2]: 0.001 to 0.025 µM
SMILES: Cc1c(-c2cnc(N)c(C(=O)NC3CC3)c2)ccc(NC(=O)C(O)c2cc(F)cc(F)c2)c1F (stereo not shown) [Example 119, 2-amino-N-cyclopropyl-5-(4-(2-(3,5-difluorophenyl)-2-hydroxyacetamido)-3-fluoro-2-methylphenyl) nicotinamide]

IC50 [1]: 0.251 to 0.5 µM | IC50 [2]: 0.501 to 1 µM
SMILES: Cc1c(-c2cnc(N)c(C(=O)NC3COC3)c2)ccc(NC(=O)C(O)c2cc(F)cc(F)c2)c1F (stereo not shown) [Example 122, 2-amino-5-(4-(2-(3,5-difluorophenyl)-2-hydroxyacetamido)-3-fluoro-2-methylphenyl)-N-(oxetan-3-yl)nicotinamide]

IC50 [1]: 0.101 to 0.25 µM | IC50 [2]: 0.501 to 1 µM
SMILES: Cc1cc(NC(=O)C(O)c2cc(F)cc(F)c2)c(F)cc1-c1cnc(N)c(C(=O)NC(C)C)c1 (stereo not shown) [Example 125, 2-amino-5-(4-(2-(3,5-difluorophenyl)-2-hydroxyacetamido)-5-fluoro-2-methylphenyl)-N-isopropylnicotinamide]

IC50 [1]: 0.251 to 0.5 µM | IC50 [2]: > 5 µM
SMILES: Cc1cc(NC(=O)C(O)c2cccc(C(F)(F)F)c2)ncc1-c1cnc(N)c(C(=O)NC(C)C)c1 (stereo not shown) [Example 127, 6-amino-6′-(2-hydroxy-2-(3-(trifluoromethyl)phenyl)acetamido)-N-isopropyl-4′-methyl-[3,3′-bipyridine]-5-carboxamide]

IC50 [1]: 0.051 to 0.1 µM | IC50 [2]: > 5 µM
SMILES: Cc1cc(NC(=O)C(O)c2cccc(C(F)(F)F)c2)ncc1-c1cnc(N)c(C(=O)NC(C)C)c1 (stereo not shown) [Example 128, 6-amino-6′-(2-hydroxy-2-(3-(trifluoromethyl)phenyl)acetamido)-N-isopropyl-4′-methyl-[3,3′-bipyridine]-5-carboxamide]

IC50 [1]: 0.051 to 0.1 µM | IC50 [2]: 0.101 to 0.25 µM
SMILES: Cc1cc(NC(=O)C(O)c2cc(F)cc(F)c2)ccc1-c1cnc(N)c(C(=O)NC(C)C)n1 (stereo not shown) [Example 133, 3-amino-6-(4-(2-(3,5-difluorophenyl)-2-hydroxyacetamido)-2-methylphenyl)-N-isopropylpyrazine-2 carboxamide]

IC50 [1]: 0.001 to 0.025 µM | IC50 [2]: 0.026 to 0.05 µM
SMILES: Cc1cc(NC(=O)C(O)c2cc(F)cc(F)c2)ccc1-c1cnc(N)c(C(=O)NC(C)C)n1 (stereo not shown) [Example 134, 3-amino-6-(4-(2-(3,5-difluorophenyl)-2-hydroxyacetamido)-2-methylphenyl)-N-isopropylpyrazine-2-carboxamide]

IC50 [1]: 0.001 to 0.025 µM | IC50 [2]: 0.026 to 0.05 µM
SMILES: CNC(=O)c1nc(-c2ccc(NC(=O)C(O)c3cc(F)cc(F)c3)cc2C)cnc1N (stereo not shown) [Example 135, 3-amino-6-(4-(2-(3,5-difluorophenyl)-2-hydroxyacetamido)-2-methylphenyl)-N-methylpyrazine-2-carboxamide]

IC50 [1]: 0.001 to 0.025 µM | IC50 [2]: 0.026 to 0.05 µM
SMILES: Cc1cc(NC(=O)C(O)c2cc(F)cc(F)c2)ccc1-c1cnc(N)c(C(=O)NC2CC2)n1 (stereo not shown) [Example 138, 3-amino-N-cyclopropyl-6-(4-(2-(3,5-difluorophenyl)-2-hydroxyacetamido)-2-methylphenyl) pyrazine-2-carboxamide]

IC50 [1]: 0.001 to 0.025 µM | IC50 [2]: 0.251 to 0.5 µM
SMILES: Cc1cc(NC(=O)C(O)c2cc(F)cc(F)c2)ccc1-c1cnc(N)c(C(=O)NC2CC2)n1 (stereo not shown) [Example 139, 3-amino-N-cyclopropyl-6-(4-(2-(3,5-difluorophenyl)-2-hydroxyacetamido)-2-methylphenyl) pyrazine-2-carboxamide]

IC50 [1]: 0.026 to 0.05 µM | IC50 [2]: 0.101 to 0.25 µM
SMILES: Cc1cc(NC(=O)C(O)c2cc(F)cc(F)c2)ccc1-c1cnc(N)c(C(=O)NCCN(C)C)n1 (stereo not shown) [Example 146, 3-amino-6-(4-(2-(3,5-difluorophenyl)-2-hydroxyacetamido)-2-methylphenyl)-N-(2-(dimethylamino)ethyl)pyrazine-2-carboxamide]

IC50 [1]: 0.001 to 0.025 µM | IC50 [2]: 0.026 to 0.05 µM
SMILES: CCc1cc(NC(=O)C(O)c2cc(F)cc(F)c2)ccc1-c1cnc(N)c(C(=O)NC(C)C)n1 (stereo not shown) [Example 151, 3-amino-6-(4-(2-(3,5-difluorophenyl)-2-hydroxyacetamido)-2-ethylphenyl)-N-isopropylpyrazine-2-carboxamide]

IC50 [1]: 0.001 to 0.025 µM | IC50 [2]: 0.026 to 0.05 µM
SMILES: CCNC(=O)c1nc(-c2ccc(NC(=O)C(O)c3cc(F)cc(F)c3)cc2CC)cnc1N (stereo not shown) [Example 153, 3-amino-6-(4-(2-(3,5-difluorophenyl)-2-hydroxyactamido)-2-ethylphenyl)-N-ethylpyrazine-2-carboxamide]

IC50 [1]: 0.001 to 0.025 µM | IC50 [2]: 0.001 to 0.025 µM
SMILES: CCc1cc(NC(=O)C(O)c2cc(F)cc(F)c2)ccc1-c1cnc(N)c(C(=O)NC2CC2)n1 (stereo not shown) [Example 156, 3-amino-N-cyclopropyl-6-(4-(2-(3,5-difluorophenyl)-2-hydroxyacetamido)-2-ethylphenyl)pyrazine-2-carboxamide]
